Experimental data reported in patent US20240418701A1, “SINGLE MOLECULE IDEN[…] A REACTIVE HETERO-NANOPORE” (priority 2021, published 2024).

What was measured:
[1] = molecular target: T1, MspA-PBA (boronic acid appended hetero-octameric MspA) (Mycolicibacterium smegmatis, UniProt A0QR29, D117C/D118N/D120N/D145R/D161R/E166K); test: Single channel recording of alditol binding to MspA-PBA nanopore (standards and zero-sugar drinks); design: species or system Mycobacterium smegmatis; details: N=3; for ratio (mean current percentage blockage) / std (standard deviation of the blocking level): alditol 4 mM (glycerol 8 mM) in cis
T1 construct: H6 (hexa-histidine) (C); 3-(maleimide) phenylboronic acid (MPBA) adduct on the thiol of Cys90; made in house; host or cells: E. coli BL21 (DE3) pLysS, co-expression from pETDuet-1
T1 sequence (A0QR29 other isoform, or with tags, fused parts or gaps D117N/D118N/D120N/D145R/D161R/E166K): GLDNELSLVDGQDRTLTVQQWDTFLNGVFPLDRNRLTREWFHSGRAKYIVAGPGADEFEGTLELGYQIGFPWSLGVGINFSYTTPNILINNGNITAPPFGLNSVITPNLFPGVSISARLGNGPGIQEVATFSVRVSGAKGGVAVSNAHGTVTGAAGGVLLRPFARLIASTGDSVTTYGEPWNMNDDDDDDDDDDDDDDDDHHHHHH
T1 sequence (A0QR29 other isoform, or with tags, fused parts or gaps D117C/D118N/D120N/D145R/D161R/E166K): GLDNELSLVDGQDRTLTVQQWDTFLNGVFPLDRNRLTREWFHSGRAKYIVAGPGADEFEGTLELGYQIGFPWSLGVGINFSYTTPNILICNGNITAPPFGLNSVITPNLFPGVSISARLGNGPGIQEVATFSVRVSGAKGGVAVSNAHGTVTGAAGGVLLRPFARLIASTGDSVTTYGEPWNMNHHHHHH
Protocol: FIG. 88: Definition of event parameters. (a) A representative electrophysiology trace containing nanopore events. Xylitol was treated as the model analyte. I0 is the open pore current and Ib is the residual current caused by alditol blockade. ratio is derived from (I0−Ib)/I0, which is defined as the percentage blockage. τoff represents the dwell time of an event. τon represents the inter-event interval. std is the standard deviation value of the blockage level. (b-c) The histogram plot of ratio (b) and std (c) acquired from a continually recorded trace. The histograms were Gaussian fitted and the peaks of the fitting results respectively represent the mean value of ratio and the mean std. (d-e) The histogram plots of τoff (d) and τon (e) acquired from a continually recorded trace. The histogram plots were respectively fit to a single exponential curve, according to the equation y=a*exp (−x/τ), from which the mean event dwell time (τoff) (d) and the mean inter-event interval (τon) (e) were respectively derived. If not otherwise stated, all results in this manuscript were described by event parameters defined above.
All subsequent nanopore measurements were carried out with a 1.5 M KCl buffer (1.5 M KCl, 10 mM 3-(N-Morpholino) propanesulfonic acid (MOPS), pH 7.0) and a +100 m V continually applied potential (Method 1 in Example 3). 13 types of alditols, which were derived from the reduction of the carbonyl group of C3-C6 monoaldoses were treated as model polyols (FIGS. 77b and 83). The PBA of MspA-PBA can complex with a polyol, forming a cyclic ester at the pore constriction and resulting in the corresponding nanopore event being reported. All alditols were added to the cis side of the pore and the final concentration of alditols was set at 4 mM with the exception of glycerol, which was set at 8 mM instead. […] In addition, single molecule sensing of glycerol and D-Sorbitol by MspA-PBA are as shown in FIGS. 104 and 105, respectively.
To describe the sensing events quantitatively, event parameters such as the open-pore current (I0), the current blockade (Ib), the percentage blockage (ratio), the event dwell time (τoff), the inter-event intervals (τon) and the standard deviation value of the blockage level (std) were defined as described in FIG. 88. The percentage blockage, also referred to for simplicity as ratio, is defined as (I0−Ib)/I0.
Quantitatively, the reciprocal of the mean inter-event interval (1/τon, N=3) is linearly correlated with the alditol concentration, consistent with a bimolecular model. The mean event dwell time τoff (N=3) however is independent of the alditol concentration, and this is consistent with a unimolecular dissociation mechanism (FIGS. 89e-92e, Table 18). […] The binding constant for borate cyclic ester formation for alditols increases as the number of hydroxyl groups in the alditol increases (FIG. 77c and Table 18), consistent with conclusions drawn previously from the corresponding NMR measurements.^52 Nanopore measurements were also performed with different applied voltages. […] This is expected because all alditols tested in this paper are electrically neutral and the formation of a borate ester is independent of the local electric field.
All nanopore measurements were performed as described previously.^1,2 Briefly, the measurement device has two custom chambers separated by a thick Teflon film containing a drilled (˜100 μm) aperture. Before the measurement, the aperture was first treated with 0.5% (v/v) hexadecane in pentane and set for pentane evaporation. Electrolyte buffer (500 μL) was added to the electrically grounded chamber (cis chamber) and the opposing chamber (trans chamber). All nanopore measurements in this paper were performed with a 1.5 M KCl buffer (1.5 M KCl, 10 mM MOPS, pH 7.0). Two custom-made Ag/AgCl electrodes were placed in both chambers in contact with the buffers and the patch-clamp amplifier to form a closed circuit. […]

Octameric M2 MspA = molecular target: T2, Octameric M2 MspA (Mycolicibacterium smegmatis, UniProt A0QR29, D117N/D118N/D120N/D145R/D161R/E166K); test: Alditol sensing using M2 MspA nanopore (control without PBA); format: binding, Mycobacterium smegmatis; details: alditol 4 mM in cis, +100 mV
T2 construct: made in house; host or cells: E. coli BL21 (DE3)
T2 sequence (A0QR29 28-211 D117N/D118N/D120N/D145R/D161R/E166K): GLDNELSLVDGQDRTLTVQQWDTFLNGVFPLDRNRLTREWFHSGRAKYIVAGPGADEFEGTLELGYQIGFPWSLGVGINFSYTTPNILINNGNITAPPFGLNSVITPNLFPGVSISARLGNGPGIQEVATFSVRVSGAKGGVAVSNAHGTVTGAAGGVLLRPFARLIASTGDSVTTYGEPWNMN
Protocol: FIG. 87: Alditol sensing using M2 MspA nanopore. Glycerol, erythritol, xylitol and sorbitol were used as the representative alditols with different number of hydroxyl groups. All measurements were carried out as described in Methods 1 in Example 3. Octameric M2 MspA was applied as the nanopore sensor. A transmembrane potential of +100 m V was continually applied. Each alditol was added to cis with a final concentration of 4 mM.
The octameric M2 MspA was used as a control in FIG. 87. It was expressed with E. coli BL21 (DE3) and purified by nickel affinity chromatography as reported previously.^1

[2] = molecular target: T3, MspA-PBA (phenylboronic acid modified hetero-octameric (N90C)1(M2)7 MspA) (Mycolicibacterium smegmatis, UniProt A0QR29, D117C/D118N/D120N/D145R/D161R/E166K); format: binding, Mycobacterium smegmatis; details: +200 mV
T3 construct: H6 (hexa-histidine) (C); 3-(maleimide) phenylboronic acid (MPBA) adduct on the thiol of Cys90; made in house; host or cells: E. coli BL21 (DE3) pLysS, co-expression from pETDuet-1
Protocol: FIG. 46: Definition of event parameters. […] The measurement was carried out as described in Methods in Example 2. The chambers were filled with a 1.5 M KCl buffer (1.5 M KCl, 10 mM MOPS, pH 7.0). A transmembrane potential of +200 mV was continually applied. AMP was added to cis with a final concentration of 300 μM. The open pore current (Ip), the residual current (Ib), the dwell time (τoff) and the inter-event duration (τon) are defined as marked on the trace. The percentage blockage (% Ib) is defined as (Ip−Ib)/Ip. The noise amplitude (S.D.) is defined as the standard deviation of the blockage level.
NMPs consist of a ribose, a phosphate group and a nucleobase, serving as monomeric units of RNA. […] Experimentally, single channel recording was performed using MspA-PBA in a 1.5 M KCl buffer (1.5 M KCl, 10 mM MOPS, pH 7.0) (Methods in Example 2). A transmembrane potential of +200 mV was continually applied. Four canonical NMPs, adenine mononucleotide (AMP), guanine mononucleotide (GMP), cytosine mononucleotide (CMP) and uracil mononucleotide (UMP) were tested as analytes (FIG. 33d). Either type of NMP was added to cis at a final concentration of 300 μM. Subsequently, successive resistive pulses caused by either type of NMP were immediately observed (FIG. 33d). However, no events were observed when M2 MspA was tested, confirming that the PBA located at the pore constriction is critical in the generation of NMP sensing events (FIG. 44). At this condition, ˜1800 events/h were obtained from each pore. The pore could normally withstand a few hours of continuous measurement. Deoxyribonucleoside monophosphate (dNMP) fails to report any event when sensed by MspA-PBA (FIG. 45). This is expected because dNMPs have no cis-diol structure and can't form the boronate ester which is necessary for sensing. The molecular mechanism of sensing which results from reversible covalent bond formation between an NMP and the PBA at the pore constriction is thus confirmed.
To describe NMP sensing events quantitatively, the event dwell time (τoff), the inter-event interval (τon), the percentage blockage (% Ib=(Ip−Ib)/Ip) and the noise amplitude (S.D.) were derived as described in FIG. 46. Generally, the histograms of τoff and τon show an exponential distribution, and could be fitted to derive the mean time constants τoff or τon, respectively. The histograms of % Ib and S.D. show a Gaussian distribution, which could be fitted to derive the mean percentage blockage % Ib and S.D., respectively. During NMP sensing, by varying the NMP concentrations in cis, the reciprocal of dwell time (1/τoff) remains constant, consistent with a unimolecular dissociation mechanism. Whereas the reciprocal of the inter-event interval (1/τon) linearly correlates with the NMP concentration in cis (Tables 8-11, FIG. 47-50), consistent with a bimolecular model. The dependence of the applied voltage during NMP sensing was investigated using AMP as a representative analyte. […] This is expected because in a pH 7.0 buffer, the phosphate group of NMP is negatively charged and the electrophoretic force applied on the NMP analyte can strongly regulate the rate of event appearance and the event dwell time.

[3] = voltage series: +60 mV, glycerol 12 mM, other alditols 8 mM
[4] = voltage series: +80 mV, glycerol 12 mM, other alditols 8 mM
[5] = voltage series: +100 mV, glycerol 12 mM, other alditols 8 mM
[6] = voltage series: +120 mV, glycerol 12 mM, other alditols 8 mM

OC[C@@H](O)[C@@H](O)[C@H](O)[C@@H](O)CO [D-sorbitol]
ratio (mean current percentage blockage) ([1]; +100 mV): 30.43 ± 0.06% | std (standard deviation of the blocking level) ([1]; +100 mV): 5.30 ± 0.17 pA | 1/τon ([1]; alditol 2 mM in cis, +100 mV): 0.40 ± 0.04 s⁻¹ | τoff ([1]; alditol 2 mM in cis, +100 mV): 2.1 ± 0.3 s | 1/τon ([1]; alditol 4 mM in cis, +100 mV): 0.81 ± 0.09 s⁻¹ | τoff ([1]; alditol 4 mM in cis, +100 mV): 2.11 ± 0.12 s | 1/τon ([1]; alditol 6 mM in cis, +100 mV): 1.2 ± 0.2 s⁻¹ | τoff ([1]; alditol 6 mM in cis, +100 mV): 2.2 ± 0.2 s | 1/τon ([1]; alditol 8 mM in cis, +100 mV): 1.7 ± 0.1 s⁻¹ | τoff ([1]; alditol 8 mM in cis, +100 mV): 2.2 ± 0.3 s | 1/τon [1, 3]: 1.67 ± 0.03 s⁻¹ | 1/τon [1, 4]: 1.60 ± 0.06 s⁻¹ | 1/τon [1, 5]: 1.70 ± 0.06 s⁻¹ | 1/τon [1, 6]: 1.70 ± 0.05 s⁻¹ | binding events with M2 MspA (Octameric M2 MspA): No binding events were observed

OC[C@@H](O)[C@H](O)[C@@H](O)[C@@H](O)CO [L-sorbitol]
ratio (mean current percentage blockage) ([1]; +100 mV): 30.77 ± 0.06% | std (standard deviation of the blocking level) ([1]; +100 mV): 5.97 ± 0.04 pA

OC[C@@H](O)[C@@H](O)[C@@H](O)CO [adonitol]
ratio (mean current percentage blockage) ([1]; +100 mV): 24.13 ± 0.15% | std (standard deviation of the blocking level) ([1]; +100 mV): 3.83 ± 0.07 pA

OC[C@@H](O)[C@@H](O)[C@@H](O)[C@@H](O)CO [allitol]
ratio (mean current percentage blockage) ([1]; +100 mV): 27.57 ± 0.06% | std (standard deviation of the blocking level) ([1]; +100 mV): 4.64 ± 0.03 pA

OC[C@@H](O)C(O)[C@H](O)CO [arabitol]
ratio (mean current percentage blockage) ([1]; +100 mV): 25.13 ± 0.15% | std (standard deviation of the blocking level) ([1]; +100 mV): 4.71 ± 0.03 pA

Nc1ncnc2c1ncn2[C@H]1C[C@H](O)[C@@H](COP(=O)(O)O)O1 [dAMP, 2′-deoxyadenosine-5′-phosphate]
sensing events with MspA-PBA ([2]; analyte 1 mM in cis): no dAMP sensing events were observed

OC[C@@H](O)[C@H](O)[C@H](O)[C@@H](O)CO [dulcitol]
ratio (mean current percentage blockage) ([1]; +100 mV): 28.9 ± 0.3% | std (standard deviation of the blocking level) ([1]; +100 mV): 5.22 ± 0.06 pA

OC[C@@H](O)[C@@H](O)CO [erythritol]
ratio (mean current percentage blockage) ([1]; +100 mV): 22.00±0.17% | std (standard deviation of the blocking level) ([1]; +100 mV): 3.24±0.18 pA | 1/τon ([1]; alditol 2 mM in cis, +100 mV): 0.42 ± 0.05 s⁻¹ | τoff ([1]; alditol 2 mM in cis, +100 mV): 0.0424 ± 0.0005 s | 1/τon ([1]; alditol 4 mM in cis, +100 mV): 0.80 ± 0.05 s⁻¹ | τoff ([1]; alditol 4 mM in cis, +100 mV): 0.0434 ± 0.0032 s | 1/τon ([1]; alditol 6 mM in cis, +100 mV): 1.16 ± 0.03 s⁻¹ | τoff ([1]; alditol 6 mM in cis, +100 mV): 0.0423 ± 0.0023 s | 1/τon ([1]; alditol 8 mM in cis, +100 mV): 1.59 ± 0.09 s⁻¹ | τoff ([1]; alditol 8 mM in cis, +100 mV): 0.0442 ± 0.0015 s | 1/τon [1, 3]: 1.62 ± 0.10 s⁻¹ | 1/τon [1, 4]: 1.65 ± 0.11 s⁻¹ | 1/τon [1, 5]: 1.64 ± 0.10 s⁻¹ | 1/τon [1, 6]: 1.65 ± 0.06 s⁻¹ | binding events with M2 MspA (Octameric M2 MspA): No binding events were observed

OC[C@@H](O)[C@H](O)[C@@H](O)[C@H](O)CO [iditol]
ratio (mean current percentage blockage) ([1]; +100 mV): 29.3 ± 0.2% | std (standard deviation of the blocking level) ([1]; +100 mV): 6.64 ± 0.03 pA

OC[C@@H](O)[C@@H](O)[C@H](O)[C@H](O)CO [mannitol]
ratio (mean current percentage blockage) ([1]; +100 mV): 29.2 ± 0.3% | std (standard deviation of the blocking level) ([1]; +100 mV): 3.09 ± 0.17 pA

OC[C@@H](O)[C@H](O)[C@H](O)[C@H](O)CO [talitol]
ratio (mean current percentage blockage) ([1]; +100 mV): 27.3 ± 0.2% | std (standard deviation of the blocking level) ([1]; +100 mV): 6.33 ± 0.06 pA

OC[C@@H](O)[C@H](O)CO [threitol]
ratio (mean current percentage blockage) ([1]; +100 mV): 20.3 ± 0.2% | std (standard deviation of the blocking level) ([1]; +100 mV): 5.84 ± 0.18 pA

O=c1[nH]cc([C@@H]2O[C@H](COP(=O)(O)O)[C@@H](O)[C@H]2O)c(=O)[nH]1 [Ψ, Pseudouridine-5′-monophosphate]
% Ib (percentage blockage) ([2]; NMP 300 μM in cis, N=3): 10.2 ± 0.2% | S.D. (noise amplitude of blockage level) ([2]; NMP 300 μM in cis, N=3): 2.40 ± 0.05 pA | τoff (mean dwell time) ([2]; NMP 300 μM in cis, N=3): 36.9 ± 3.4 ms | τon (mean inter-event interval) ([2]; NMP 300 μM in cis, N=3): 2047.7 ± 283.8 ms | Calibration coefficient δ (NMP binding events per unit concentration per min) ([2]; sole NMP 300 μM in cis, three independent measurements): 0.099 ± 0.014 µM⁻¹ min⁻¹
